Test results published in PubChem BioAssay AID328 (DTP/NCI, 2004).
Where “and” joins values, the source holds several entries; their conditions need not be identical. Equal values may be shown once. Toxic doses and inconclusive results are not listed. Rule for the calls: active = survival T/C of 150% or more; inactive = T/C below 125% in these data.

Test system: BDF1 mice, P388 leukemia ip, median survival T/C
Assay: NCI In Vivo Anticancer Drug Screen. Data for tumor model P388 Leukemia (intraperitoneal) in B6D2F1 (BDF1) mice
Details: endpoint: median survival time, higher = longer survival
In short: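 In tumour-bearing mice, survival after compound treatment is set against the vehicle group and given as a quotient.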

[1] = dose: 2.6 mg/kg/injection, schedule: Q01DX009 (ip), vehicle: saline with Tween-80
[2] = dose: 6.0 mg/kg/injection, schedule: Q01DX009 (ip), vehicle: saline with Tween-80
[3] = dose: 50.0 mg/kg/injection, schedule: Q01DX009 (ip), vehicle: saline with Tween-80
[4] = dose: 100.0 mg/kg/injection, schedule: Q01DX009 (ip), vehicle: saline with Tween-80

Measured: T/C

Cc1c2ccccc2c(C)c2c1ccc1ccccc12
active: dose: 1.7 mg/kg/injection, schedule: Q01DX009 (ip), vehicle: saline with Tween-80 172 % of control | [1] 163 % of control | dose: 4.0 mg/kg/injection, schedule: Q01DX009 (ip), vehicle: saline with Tween-80 177 % of control | [2] 168 % of control | dose: 13.0 mg/kg/injection, schedule: Q01DX009 (ip), vehicle: saline with Tween-80 172 % of control

CCNc1cc(Cl)nc(N)n1
inactive: dose: 12.5 mg/kg/injection, schedule: Q01DX009 (ip), vehicle: saline with Tween-80 95 % of control | dose: 25.0 mg/kg/injection, schedule: Q01DX009 (ip), vehicle: saline with Tween-80 104 % of control | [3] 104 % of control | dose: 100.0 mg/kg/injection, schedule: Q04DX003 (ip), vehicle: saline with Tween-80 108 % of control | dose: 200.0 mg/kg/injection, schedule: Q04DX003 (ip), vehicle: saline with Tween-80 95 % of control | dose: 400.0 mg/kg/injection, schedule: Q04DX003 (ip), vehicle: saline with Tween-80 112 % of control

CCOC(=O)/C(C#N)=C/N(C)Cc1ccccc1
inactive: [3] 108 % of control | [4] 105 % of control

Nc1cc(C(=O)Nc2ccc(CCNC3=NCCN3)cc2)ccc1C(=O)Nc1ccc(CCNC2=NCCN2)cc1
active: [2] 157 % of control | dose: 6.7 mg/kg/injection, schedule: Q01DX009 (ip), vehicle: saline with Tween-80 157 % of control | dose: 10.0 mg/kg/injection, schedule: Q01DX009 (ip), vehicle: saline with Tween-80 192 % of control and 215 % of control | dose: 15.0 mg/kg/injection, schedule: Q01DX009 (ip), vehicle: saline with Tween-80 230 % of control | dose: 18.0 mg/kg/injection, schedule: Q04DX003 (ip), vehicle: saline with Tween-80 150 % of control and 163 % of control | dose: 20.0 mg/kg/injection, schedule: Q01DX009 (ip), vehicle: saline with Tween-80 230 % of control | dose: 20.0 mg/kg/injection, schedule: Q04DX003 (ip), vehicle: saline with Tween-80 163 % of control | dose: 26.0 mg/kg/injection, schedule: Q04DX003 (ip), vehicle: saline with Tween-80 150 % of control and 177 % of control | dose: 40.0 mg/kg/injection, schedule: Q04DX003 (ip), vehicle: saline with Tween-80 250 % of control and 200 % of control | dose: 60.0 mg/kg/injection, schedule: Q04DX003 (ip), vehicle: saline with Tween-80 162 % of control
inactive: [1] 123 % of control | dose: 5.0 mg/kg/injection, schedule: Q04DX003 (ip), vehicle: saline with Tween-80 109 % of control and 113 % of control | dose: 8.0 mg/kg/injection, schedule: Q04DX003 (ip), vehicle: saline with Tween-80 118 % of control | dose: 10.0 mg/kg/injection, schedule: Q04DX003 (ip), vehicle: saline with Tween-80 109 % of control | dose: 12.0 mg/kg/injection, schedule: Q04DX003 (ip), vehicle: saline with Tween-80 118 % of control

CC(C)=CCC/C(C)=C/CNCCc1c[nH]c2ccccc12
inactive: dose: 3.12 mg/kg/injection, schedule: Q01DX009 (ip), vehicle: Klucel (hydroxypropylcellulose) (HPC) 117 % of control | dose: 6.25 mg/kg/injection, schedule: Q01DX009 (ip), vehicle: Klucel (hydroxypropylcellulose) (HPC) 104 % of control and 117 % of control | dose: 12.5 mg/kg/injection, schedule: Q01DX009 (ip), vehicle: Klucel (hydroxypropylcellulose) (HPC) 117 % of control | dose: 25.0 mg/kg/injection, schedule: Q01DX009 (ip), vehicle: Klucel (hydroxypropylcellulose) (HPC) 120 % of control | dose: 50.0 mg/kg/injection, schedule: Q01DX009 (ip), vehicle: Klucel (hydroxypropylcellulose) (HPC) 120 % of control

CS(=O)(=O)Nc1ccccc1[N+](=O)[O-]
inactive: [3] 109 % of control | [4] 104 % of control and 115 % of control | dose: 200.0 mg/kg/injection, schedule: Q01DX009 (ip), vehicle: saline with Tween-80 100 % of control

CCOC12c3c4cccc3C(=O)c3cccc(c31)C(=O)c1cccc(c12)C4=O
inactive: dose: 100.0 mg/kg/injection, schedule: Q01DX001 (ip), vehicle: Klucel (hydroxypropylcellulose) (HPC) 95 % of control | dose: 100.0 mg/kg/injection, schedule: Q01DX009 (ip), vehicle: Klucel (hydroxypropylcellulose) (HPC) 100 % of control | dose: 100.0 mg/kg/injection, schedule: Q04DX003 (ip), vehicle: Klucel (hydroxypropylcellulose) (HPC) 100 % of control | dose: 200.0 mg/kg/injection, schedule: Q01DX001 (ip), vehicle: Klucel (hydroxypropylcellulose) (HPC) 100 % of control | dose: 200.0 mg/kg/injection, schedule: Q01DX009 (ip), vehicle: Klucel (hydroxypropylcellulose) (HPC) 100 % of control | dose: 200.0 mg/kg/injection, schedule: Q04DX003 (ip), vehicle: Klucel (hydroxypropylcellulose) (HPC) 100 % of control | dose: 400.0 mg/kg/injection, schedule: Q01DX001 (ip), vehicle: Klucel (hydroxypropylcellulose) (HPC) 109 % of control | dose: 400.0 mg/kg/injection, schedule: Q01DX009 (ip), vehicle: Klucel (hydroxypropylcellulose) (HPC) 90 % of control | dose: 400.0 mg/kg/injection, schedule: Q04DX003 (ip), vehicle: Klucel (hydroxypropylcellulose) (HPC) 91 % of control
